According to paper PMC11117691, “Flipping the GPCR Switch: Structure-Based Development of Selective Cannabinoid Receptor 2 Inverse Agonists” (ACS Central Science, 2024):

Key:
hCB2R [1] = biological target: T1, hCB2R (Homo sapiens, UniProt P34972); assay: cAMP HTRF assay in hCB2R-CHO cells; format: cell-based; design: expressed in transfected cells; settings: for EC50: hCB2R-CHO cells, forskolin stimulated, mean N = 3
Description: One of the canonical signaling pathways of CB2R involves association with Gαi/o proteins, which elicit reversible inhibition of adenylyl cyclase resulting in a decrease of cellular cAMP levels and suppression of protein kinase A activity.[67] Consequently, we have investigated the change in cAMP levels upon probe addition using homogeneous time-resolved fluorescence (HTRF) cAMP assay (Table 3).
Homogeneous Time-Resolved Fluorescence (HTRF) cAMP assay
The homogeneous time-resolved fluorescence (HTRF) cAMP assay was conducted according to the manufacturer’s protocol for the cAMP-Gs Dynamic kit (Cisbio). Briefly, the CHO cell line stably overexpressing CB2R was maintained in Ham’s F12 supplemented with 10% FBS, penicillin (100 U/mL, Gibco-ThermoFisher), streptomycin (100 μg/mL, Gibco-ThermoFisher) and G418 (400 μg/mL, ThermoFisher). For CB2R compounds test, the cells were harvested with Cell Dissociation Buffer, resuspended in F-12 K at 0.4×10^6 cells/mL, and dispensed into 384-well low volume plates at 2000 cells/5 μL per well. The cells were stimulated with compounds diluted in Stimulation Buffer (2.5 μL/well) for 15 min at room temperature, followed by the addition of forsklin (2.5 μL 25 μM). After 15 mins incubation, reactions were stopped by 5 μL/well cAMP-d2 conjugate working solution followed by 5 μL/well of anti-cAMP cryptate working solution. After incubation for 1 h at room temperature, the plates were read in a PerkinElmer Envision reader for Time-Resolved Förster Resonance Energy Transfer (TR-FRET) at 620 nm and 665 nm.
β–arrestin recruitment assay
SNAP-tagged human CB2R HEK293-TR cells were maintained in a humidified environment at 37 °C and 5% CO2 in Dulbecco’s modified Eagle’s medium (DMEM) with 10% fetal bovine serum (FBS) containing blasticidin (5 µg/mL; Invitrogen) and (Zeocin; 20 µg/mL; Invitrogen). For receptor-inducible expression, cells were seeded into t175 cm2 flasks, grown to 70% confluence and DMEM containing 1 µg/ml tetracycline added.
HEK293TR-CB2R-nLuc cells expressing a fluorescently labelled β-arrestin protein were maintained in a humidified environment at 37 °C and 5% CO2 in Dulbecco’s modified Eagle’s medium (DMEM) with 10% fetal bovine serum (FBS) containing blasticidin (5 µg/mL; Invitrogen), Zeocin (20 µg/mL; Invitrogen) and G418 (0.2 mg/mL; Invitrogen) and used to assess compound stimulated β-arrestin recruitment to the human CB2R. Cultured cells were harvested upon reaching 70% confluency and plated at a seeding density of 50,000 cells per well. The cells were grown for 48 h until they reached confluency and then stimulated with 1 μg/mL tetracycline for a further 48 h to induce CB2R expression. Cell culture media was then aspirated from the wells and the cells were washed with assay buffer, 100 μL/well HBSS containing 0.5% BSA and 5 mM

hCB2R [2] = biological target: T1, hCB2R; format: cell-based; design: expressed in transfected cells; host or cells: HEK293TR cells, tetracycline-induced, live cells; settings: HEK293TR-CB2R-nLuc cells, representative of N = 3
Description: HEPES. Following the wash, assay buffer containing 10 μM furimazine, 90 μL/well was added
to the wells. The plate was then incubated at 37 °C for 15 minutes to allow the nanoLuc substrate
furimazine to enter the cells. Three BRET cycles of 1-minute intervals were performed to assess
basal BRET levels, following which 10 μL of each compound, diluted in assay buffer was added
to the assay plate, which was read at 1-minute intervals for 30 minutes.
Buffer containing 10% DMSO (1% final) served as the vehicle control and
The assay buffer used to profile compounds in the CB 2R Gi-CASE system consisted of HBSS
containing 0.02% pluronic F127, 0.5% BSA and 5 mM HEPES. The reference compounds HU -
polypropylene plate. 0.5 µL of the reference and test compound serial dilutions was then added to
a white 384 well OptiplateTM (PerkinElmer) containing 39.5 μL of assay buff er. Finally, the CB 2R
membranes containing the G i-CASE biosensor were thawed and added into assay buffer containing
50 µM furimazine. Membranes (10 μL) were added to the assay plate at a final concentration of 5
µg/well. The total assay volume was 50 µL.

hCB2R [3] = biological target: T1, hCB2R; assay: TR-FRET saturation binding assay at CB2R; design: expressed in transfected cells; host or cells: HEK293-TR cells, tetracycline-induced; membrane preparations; settings: room temperature; for Kd: TR-FRET, HEK293 membranes of SNAP-Lumi4-Tb labeled hCB2R
hCB2R [4] = biological target: T1, hCB2R; assay: TR-FRET kinetic binding assay at CB2R; design: expressed in transfected cells; host or cells: HEK293-TR cells, tetracycline-induced; membrane preparations; settings: for koff / kon / τ (receptor residence time) / Kd: hCB2R-HEK293 membranes, mean N = 3; for Kd: kinetic Kd
hCB2R [5] = biological target: T1, hCB2R; assay: BRET Gi-CASE G protein recruitment membrane assay; format: biochemical; design: expressed in transfected cells; host or cells: HEK293-TR cells, tetracycline-induced; membrane preparations; settings: for EC50: hCB2R-HEK293 T-REx membranes, mean N = 3–4, read-out: pEC50 (Gi-CASE G protein recruitment) (converted)
[6] = test system: CB2R-mediated phosphorylation of endogenous ERK1/2; assay: AlphaScreen SureFire phospho-ERK assay in CB2R inducible HCC1954 cells; format: cell-based; settings: 1 μM, 30 min, versus vehicle
Description: Activation of CB2R is associated with downstream stimulation of mitogen-activated protein kinases, such as ERK1/2, mediated via either Gβγ or β-arrestins.[70],[71] We have tested representative high-affinity fluorescent probe (R)-2 for CB2R-mediated phosphorylation of endogenous ERK1/2 in a CB2R inducible breast cancer HCC1954 cell line using the AlphaScreen SureFire phospho-ERK assay (Figure 6). […] (1 μM), or (R)-2 (1 μM) for 30 min. Following cell lysis, lysates were incubated with a mixture containing donor and acceptor beads for 2 h at room temperature and the luminescence emission signal was measured.
For ERK phosphorylation assay an inducible HCC1954 breast cancer cell line expressing CB2R […]
ERK1/2 phosphorylation was measured using AlphaScreen® SureFire® p‐ERK 1/2 assay kit according to manufacturer instructions (PerkinElmer) . Briefly, HCC1954 cells were seeded at a density of 100 000 cells/well in poly -D-lysine coated 96-well plates and incubated in absence or presence of 1 µg/ mL doxycycline for 24 h. On the next day prior to assay, cells were serum-starved for 2 h at 37°C. […] The plate was incubated for 2 h and ERK1/2 phosphorylation was measured on CLARIOstar® Plus Multimode Plate Reader (BMG Labtech, Germany), using a ratio of 620/570 nm. […]
Statistical significance was determined by one-way ANOVA followed by Tukey's post hoc test.

[7] = normalized to agonist CP-55,940 response (100%) and basal level (0%)

T1 sequence (P34972 whole entry): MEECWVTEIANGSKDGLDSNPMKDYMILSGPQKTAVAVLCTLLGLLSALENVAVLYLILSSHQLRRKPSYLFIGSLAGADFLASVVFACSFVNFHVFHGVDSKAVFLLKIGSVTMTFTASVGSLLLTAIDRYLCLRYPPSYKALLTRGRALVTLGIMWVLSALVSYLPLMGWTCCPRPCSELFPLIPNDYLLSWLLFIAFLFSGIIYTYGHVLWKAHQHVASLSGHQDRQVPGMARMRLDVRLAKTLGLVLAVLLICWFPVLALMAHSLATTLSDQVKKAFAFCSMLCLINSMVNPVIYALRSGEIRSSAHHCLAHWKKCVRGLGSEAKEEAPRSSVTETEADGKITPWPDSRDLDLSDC

Molecule	EC50 (hCB2R [1]) [nM]	Emax (cAMP) (hCB2R [1]; [7])	β-arrestin recruitment (BRET signal) (hCB2R [2])	Kd (hCB2R [3]) [nM]	fold greater binding affinity for CB2R in comparison to (S)-1 (hCB2R [3]; ratio of Kd values) [fold]	koff (hCB2R [4]; 37 °C)	kon (hCB2R [4]; 37 °C)	τ (receptor residence time) (hCB2R [4]; 37 °C) [min]	Kd (hCB2R [4]; 37 °C) [nM]	EC50 (hCB2R [5]) [nM]	Emax (hCB2R [1]; [7]) [%]	fold increased potency of G protein recruitment over adenylyl cyclase inhibition (hCB2R [5]; Gi-CASE pEC50 versus cAMP pEC50) [fold]	ΔG (Experimental) (hCB2R [4]; ΔG exp = RT ln(Kd), T = 310 K, from experimental Kd values)	ERK1/2 phosphorylation level ([6]; CB2R expression induced with DOX (1 μg/mL))	ERK1/2 phosphorylation level ([6]; absence of CB2R expression inducer (DOX))	dissociation rate of fluorescent tracer (hCB2R [4]; tracer of competition-association assay, value fixed in fitting, 37 °C) [min⁻¹]
COc1cc(C(C)(C)C(CCCCCN=[N+]=[N-])c2ccccc2)cc(OC)c1C1C=C(CN)C2CC1C2(C)C [(R)-1]	112	–44%	Baseline BRET signal was retained	39.1	12	13.9 10^–2 min^–1	12.0 10^6 M^–1 min^–1	7.19	11.6	158						
COc1cc(C(C)(C)C(CCCCCN=[N+]=[N-])c2ccccc2)cc(OC)c1C1C=C(CN)C2CC1C2(C)C [(S)-1]	2690		Baseline BRET signal was retained	476		115 10^–2 min^–1	157000 M⁻¹ s⁻¹	0.87	122	191	-44	14				
C#CCCC(=O)NCC1=CC(c2c(OC)cc(C(C)(C)C(CCCCCN=[N+]=[N-])c3ccccc3)cc2OC)C2CC1C2(C)C [(S)-3]	40.7	–49%	Baseline BRET signal was retained	2.1		4.96 10^–2 min^–1	44.3 10^6 M^–1 min^–1	20.2	1.12	30.9			–12.7 kcal mol-1			
CCCC(C)(C)c1ccc2c(c1)OC(C)(C)[C@@H]1CC=C(C)C[C@@H]21 [JWH133]														effectively stimulated ERK1/2 phosphorylation	remained the same	
RO7568997 [reference compound]																1.13
